From patent publication US11834453B2, “Substituted pyrimido[5,4-d]pyrimidines as HER2 inhibitors” (Array BioPharma Inc., priority 2020, dated 2023)

Key:
[1] = molecular target: ErbB2 insYVMA (HER2-YVMA, SEQ ID NO: 2) (Homo sapiens, UniProt P04626, INS775YVMA/P1170A); assay: biochemical; conditions: ErbB2 insYVMA enzyme assay; read-out: Assay 1 IC50
ErbB2 WT = ErbB2 WT (Homo sapiens (Human), UniProt P04626); assay: ErbB enzyme assay (CisBio HTRF KinEASE-TK), Assay 2; format: biochemical
Outline: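 Readout is HTRF KinEASE-TK, using Sa-XL665 and cryptate antibody for 1 h at 22 °C, as percent of control between DMSO-only (100) and pre-quenched (0) reactions. The kinase reaction runs 30 min at 22 °C with 1 mM ATP and 250 nM biotinylated TK substrate, in HEPES pH 7.4 with MgCl2 and 2% DMSO.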

EGFR = EGFR (Homo sapiens (Human), UniProt P00533); assay: ErbB enzyme assay (CisBio HTRF KinEASE-TK), Assay 3; format: biochemical
Outline: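 IC50 was taken where a 4-parameter logistic fit crossed 50 percent of control (DMSO 100, pre-quenched 0), read by ratiometric HTRF. Reactions ran 30 min at 22 °C with 1 mM ATP and 250 nM TK-substrate biotin in pH 7.4 HEPES buffer with MgCl2, Triton X-100 and 2% DMSO.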

[2] = molecular target: ErbB2 with Exon 20 YVMA insertion (HER2-YVMA) (Homo sapiens (Human), UniProt P04626, INS775YVMA); assay: Cellular phosphorylation assay, constitutive ErbB2 phosphorylation (Y1196) in engineered NIH 3T3 cells, Assay 4; format: cell-based
Outline: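 In-cell Western in NIH 3T3 cells carrying ErbB2 exon 20 YVMA insertion, with no ligand stimulation. One hour compound exposure at 37 °C before fixation and anti-pY1196 plus GAPDH staining with dual-wavelength fluorescence. IC50 derived after GAPDH normalization.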

EGFR wild type (EGFR WT) = EGFR wild type (EGFR WT) (Homo sapiens (Human), UniProt P00533); assay: Cellular phosphorylation assay, EGF-stimulated EGFR phosphorylation in engineered NIH 3T3 cells, Phospho-EGFR DuoSet IC ELISA, Assay 5; format: cell-based
Chain of EGFR wild type (EGFR WT) (P00533 25-1210): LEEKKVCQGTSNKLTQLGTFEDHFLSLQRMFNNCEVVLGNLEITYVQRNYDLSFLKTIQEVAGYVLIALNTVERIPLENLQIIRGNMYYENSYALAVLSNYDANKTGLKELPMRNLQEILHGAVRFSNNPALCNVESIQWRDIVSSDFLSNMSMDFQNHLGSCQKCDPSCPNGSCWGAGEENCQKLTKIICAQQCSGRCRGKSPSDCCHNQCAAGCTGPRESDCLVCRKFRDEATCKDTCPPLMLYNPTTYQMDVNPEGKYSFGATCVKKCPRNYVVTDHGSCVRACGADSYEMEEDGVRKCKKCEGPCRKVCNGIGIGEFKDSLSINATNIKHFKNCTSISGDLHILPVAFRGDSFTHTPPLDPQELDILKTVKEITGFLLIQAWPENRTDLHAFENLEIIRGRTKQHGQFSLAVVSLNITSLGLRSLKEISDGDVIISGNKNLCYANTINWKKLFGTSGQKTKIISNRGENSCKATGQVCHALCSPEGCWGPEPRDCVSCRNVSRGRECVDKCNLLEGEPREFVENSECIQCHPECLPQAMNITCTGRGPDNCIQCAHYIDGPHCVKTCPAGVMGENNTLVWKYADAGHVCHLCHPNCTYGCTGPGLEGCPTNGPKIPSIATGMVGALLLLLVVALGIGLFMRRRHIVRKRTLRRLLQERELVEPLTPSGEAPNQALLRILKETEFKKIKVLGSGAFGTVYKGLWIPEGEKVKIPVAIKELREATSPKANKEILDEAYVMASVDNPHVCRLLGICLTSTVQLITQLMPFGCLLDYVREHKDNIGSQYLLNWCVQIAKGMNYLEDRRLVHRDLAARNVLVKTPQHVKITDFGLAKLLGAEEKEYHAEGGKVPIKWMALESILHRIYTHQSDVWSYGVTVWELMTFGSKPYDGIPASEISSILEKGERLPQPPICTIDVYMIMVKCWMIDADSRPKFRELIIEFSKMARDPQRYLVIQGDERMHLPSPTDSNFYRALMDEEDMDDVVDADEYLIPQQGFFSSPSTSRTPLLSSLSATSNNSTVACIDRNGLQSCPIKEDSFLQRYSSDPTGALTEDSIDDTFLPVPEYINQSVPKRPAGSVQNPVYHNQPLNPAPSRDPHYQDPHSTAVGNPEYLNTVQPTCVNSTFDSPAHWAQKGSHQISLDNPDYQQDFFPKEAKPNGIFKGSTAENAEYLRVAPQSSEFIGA
Outline: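 Phospho-EGFR ELISA on lysates of engineered NIH 3T3 EGFR WT cells, IC50 derived from concentration curves. Cells plated at 20,000/well overnight, given compound dilutions 1 h at 37 °C, then rEGF 100 ng/ml for a further 10 min before lysis.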

MDR1 (P-gp) = MDR1 (P-gp) (Homo sapiens (Human), UniProt P08183); assay: MDR1 transfected MDCKII canine Mdr1 knockout permeability/efflux, Assay 7; conditions: dog, MDCK-MDR1
BCRP = BCRP (Homo sapiens (Human), UniProt Q9UNQ0); assay: BCRP transfected MDCKII canine Mdr1 knockout permeability/efflux, Assay 9; conditions: dog
Chain of BCRP (Q9UNQ0 whole entry): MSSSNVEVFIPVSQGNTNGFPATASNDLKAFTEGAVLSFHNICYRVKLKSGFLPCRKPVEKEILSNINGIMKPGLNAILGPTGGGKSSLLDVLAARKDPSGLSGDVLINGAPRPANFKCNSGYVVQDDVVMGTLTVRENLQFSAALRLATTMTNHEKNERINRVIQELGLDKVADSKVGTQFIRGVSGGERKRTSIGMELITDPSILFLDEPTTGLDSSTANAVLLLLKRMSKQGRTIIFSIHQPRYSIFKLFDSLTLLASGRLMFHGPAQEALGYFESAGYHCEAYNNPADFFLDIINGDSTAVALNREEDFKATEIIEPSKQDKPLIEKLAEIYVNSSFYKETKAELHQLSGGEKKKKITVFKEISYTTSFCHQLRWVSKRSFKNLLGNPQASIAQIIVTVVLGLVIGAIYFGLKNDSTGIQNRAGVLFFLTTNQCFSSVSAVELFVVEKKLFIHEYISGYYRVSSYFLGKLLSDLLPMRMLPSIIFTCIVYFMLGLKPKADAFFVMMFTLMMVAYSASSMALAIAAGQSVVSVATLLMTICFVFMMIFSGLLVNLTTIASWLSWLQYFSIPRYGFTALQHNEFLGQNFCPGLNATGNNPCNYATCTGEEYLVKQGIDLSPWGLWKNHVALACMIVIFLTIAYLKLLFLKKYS

[3] = Assay 9 Pe Ratio, efflux ratio Papp(B-A)/Papp(A-B), BCRP transfected MDCKII canine Mdr1 knockout

Chain of ErbB2 insYVMA (HER2-YVMA, SEQ ID NO: 2) (P04626 with tags, fused parts or gaps INS775YVMA/P1170A limits assumed): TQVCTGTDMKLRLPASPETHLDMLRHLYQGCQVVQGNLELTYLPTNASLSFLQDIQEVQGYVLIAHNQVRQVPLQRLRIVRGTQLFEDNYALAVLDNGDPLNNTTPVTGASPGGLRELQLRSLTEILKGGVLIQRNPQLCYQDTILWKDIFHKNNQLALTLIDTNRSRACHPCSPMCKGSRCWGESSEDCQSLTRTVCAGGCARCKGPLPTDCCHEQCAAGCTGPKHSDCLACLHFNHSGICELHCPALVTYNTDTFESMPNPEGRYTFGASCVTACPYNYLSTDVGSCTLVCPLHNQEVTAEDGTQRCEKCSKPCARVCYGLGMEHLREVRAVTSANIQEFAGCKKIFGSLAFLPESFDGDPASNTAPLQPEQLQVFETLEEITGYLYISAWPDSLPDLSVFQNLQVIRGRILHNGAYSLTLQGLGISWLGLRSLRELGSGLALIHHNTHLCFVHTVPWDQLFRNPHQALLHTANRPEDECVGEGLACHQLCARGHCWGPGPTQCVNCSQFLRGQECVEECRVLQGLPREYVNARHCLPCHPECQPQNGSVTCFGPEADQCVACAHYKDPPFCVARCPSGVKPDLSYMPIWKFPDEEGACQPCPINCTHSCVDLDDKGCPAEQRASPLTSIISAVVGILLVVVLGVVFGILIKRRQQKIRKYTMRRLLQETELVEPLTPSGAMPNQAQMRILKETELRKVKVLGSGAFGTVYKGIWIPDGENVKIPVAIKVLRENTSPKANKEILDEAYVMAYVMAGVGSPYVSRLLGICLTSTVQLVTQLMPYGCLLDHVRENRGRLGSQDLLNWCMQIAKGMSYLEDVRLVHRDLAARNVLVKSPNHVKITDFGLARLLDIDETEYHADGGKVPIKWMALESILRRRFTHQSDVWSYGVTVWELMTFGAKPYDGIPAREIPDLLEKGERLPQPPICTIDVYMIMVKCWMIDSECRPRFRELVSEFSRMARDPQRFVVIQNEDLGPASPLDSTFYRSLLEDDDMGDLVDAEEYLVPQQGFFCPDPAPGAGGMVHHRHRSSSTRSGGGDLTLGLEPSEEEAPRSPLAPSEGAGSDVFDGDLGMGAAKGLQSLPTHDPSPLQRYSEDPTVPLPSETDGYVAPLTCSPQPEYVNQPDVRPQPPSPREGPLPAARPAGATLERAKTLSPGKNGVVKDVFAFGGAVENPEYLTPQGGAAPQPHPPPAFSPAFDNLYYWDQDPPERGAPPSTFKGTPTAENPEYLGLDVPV
Chain of ErbB2 WT (P04626 23-1255): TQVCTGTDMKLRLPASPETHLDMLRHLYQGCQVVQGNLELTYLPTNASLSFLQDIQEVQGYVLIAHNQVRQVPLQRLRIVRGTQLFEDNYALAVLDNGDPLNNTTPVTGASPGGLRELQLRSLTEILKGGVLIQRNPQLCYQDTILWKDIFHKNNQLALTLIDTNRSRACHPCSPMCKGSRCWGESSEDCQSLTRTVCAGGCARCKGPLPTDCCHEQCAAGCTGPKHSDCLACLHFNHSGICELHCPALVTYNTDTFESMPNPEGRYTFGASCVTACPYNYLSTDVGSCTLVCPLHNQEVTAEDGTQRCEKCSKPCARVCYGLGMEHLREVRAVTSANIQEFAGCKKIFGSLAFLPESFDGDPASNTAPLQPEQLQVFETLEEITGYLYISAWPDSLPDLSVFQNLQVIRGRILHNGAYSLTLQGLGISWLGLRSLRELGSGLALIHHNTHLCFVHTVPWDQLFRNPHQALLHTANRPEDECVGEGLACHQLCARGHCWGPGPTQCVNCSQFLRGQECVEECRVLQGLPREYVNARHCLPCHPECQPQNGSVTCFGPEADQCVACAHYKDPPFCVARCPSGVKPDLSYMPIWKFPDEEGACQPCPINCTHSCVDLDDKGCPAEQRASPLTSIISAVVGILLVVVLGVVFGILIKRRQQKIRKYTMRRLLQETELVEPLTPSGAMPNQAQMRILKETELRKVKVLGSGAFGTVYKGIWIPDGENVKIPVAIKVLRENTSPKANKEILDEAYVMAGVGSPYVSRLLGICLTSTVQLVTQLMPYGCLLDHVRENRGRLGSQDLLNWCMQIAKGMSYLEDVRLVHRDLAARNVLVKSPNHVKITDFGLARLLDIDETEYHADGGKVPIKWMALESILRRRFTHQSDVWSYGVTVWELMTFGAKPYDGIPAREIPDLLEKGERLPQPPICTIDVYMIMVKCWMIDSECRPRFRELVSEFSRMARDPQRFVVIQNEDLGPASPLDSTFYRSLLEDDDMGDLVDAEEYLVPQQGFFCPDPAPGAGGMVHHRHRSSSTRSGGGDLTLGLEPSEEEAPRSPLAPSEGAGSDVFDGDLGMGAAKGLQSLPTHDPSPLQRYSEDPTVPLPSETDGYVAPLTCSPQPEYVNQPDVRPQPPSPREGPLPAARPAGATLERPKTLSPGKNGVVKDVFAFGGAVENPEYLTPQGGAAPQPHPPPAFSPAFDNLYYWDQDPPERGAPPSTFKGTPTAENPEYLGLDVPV

Structure (SMILES)	IC50 [1] [nM]	IC50 (ErbB2 WT) [nM]	IC50 (EGFR) [nM]	IC50 [2] [nM]	IC50 (EGFR wild type (EGFR WT)) [nM]	efflux ratio at 2 h, 1 μM (MDR1 (P-gp))	efflux ratio at 2 h, 1 μM (BCRP; [3])	efflux ratio at 2 h, 1 μM (BCRP)
Cc1c(Oc2ccc3c(c2)ncn3C)ccc(Nc2ncnc3cnc(N4CCC[C@](C)(O)C4)nc23)c1F [Example 147, (S)-1-(8-((2-fluoro-3-methyl-4-((1-methyl-1H-benzo[d]imidazol-5-yl)oxy)phenyl)amino)pyrimido[5,4-d]pyrimidin-2-yl)-3-methylpiperidin-3-ol]	74.2	45.5	2650	32.6	≥ 5000	1	2.7	–
Cn1cnc2cc(Oc3ccc(Nc4ncnc5cnc(N6CC[C@@H](CC#N)C6)nc45)cc3Cl)ccc21 [Example 134, (S)-2-(1-(8-((3-chloro-4-((1-methyl-1H-benzo[d]imidazol-5-yl)oxy)phenyl)amino)pyrimido[5,4-d]pyrimidin-2-yl)pyrrolidin-3-yl)acetonitrile]	55.1	–	≥ 10000	8.5	≥ 5000	1.8	6.8	–
Cc1cc(Nc2ncnc3cnc(N4CCC[C@@](C)(O)C4)nc23)c(F)cc1Oc1ccc2c(c1)ncn2C [Example 218, (R)-1-(8-((2-fluoro-5-methyl-4-((1-methyl-1H-benzo[d]imidazol-5-yl)oxy)phenyl)amino)pyrimido[5,4-d]pyrimidin-2-yl)-3-methylpiperidin-3-ol]	41.6	40.3	≥ 10000	43.8	≥ 5000	1.5	2.4	–
Clc1cc(Nc2ncnc3cnc(N4CCC45COC5)nc23)ccc1Oc1ccn2ncnc2c1 [Example 132, N-(4-([1,2,4]triazolo[1,5-a]pyridin-7-yloxy)-3-chlorophenyl)-6-(6-oxa-1-azaspiro[3.3]heptan-1-yl)pyrimido[5,4-d]pyrimidin-4-amine]	5.8	5.6	801	19.9	≥ 5000	1.1	–	1.8
Cc1cc(Nc2ncnc3cnc(N4CCN[C@H](C(F)(F)F)C4)nc23)ccc1Oc1ccc2c(c1)ncn2C [Example 172, (S)—N-(3-methyl-4-((1-methyl-1H-benzo[d]imidazol-5-yl)oxy)phenyl)-6-(3-(trifluoromethyl)piperazin-1-yl)pyrimido[5,4-d]pyrimidin-4-amine]	31	35.2	8920	26.2	≥ 5000	1.5	2	–
Cc1cc(Nc2ncnc3cnc(N(C)C4COC4)nc23)ccc1Oc1ccc2c(c1)ncn2C [Example 175, N2-methyl-N8-(3-methyl-4-((1-methyl-1H-benzo[d]imidazol-5-yl)oxy)phenyl)-N2-(oxetan-3-yl)pyrimido[5,4-d]pyrimidine-2,8-diamine]	4.2	6.3	6510	13.9	≥ 5000	1.4	1.5	–
Cc1cc(Nc2ncnc3cnc(N4CC[C@@H](C#N)C4)nc23)ccc1Oc1ccc2c(c1)ncn2C [Example 184, (R)-1-(8-((3-methyl-4-((1-methyl-1H-benzo[d]imidazol-5-yl)oxy)phenyl)amino)pyrimido[5,4-d]pyrimidin-2-yl)pyrrolidine-3-carbonitrile]	11.7	38.1	≥ 10000	20.2	≥ 5000	1.8	4.2	–
Cc1cc(Nc2ncnc3cnc(N4CCC(O)(C(F)F)CC4)nc23)ccc1Oc1ccc2c(c1)ncn2C [Example 168, 4-(difluoromethyl)-1-(8-((3-methyl-4-((1-methyl-1H-benzo[d]imidazol-5-yl)oxy)phenyl)amino)pyrimido[5,4-d]pyrimidin-2-yl)piperidin-4-ol]	39.1	113	3680	6.5	≥ 5000	2	16.7	–
Cc1cc(Nc2ncnc3cnc(N(C)[C@H]4C[C@@H](O)C4)nc23)ccc1Oc1ccc2c(c1)ncn2C [Example 183]	4.4	5.8	1050	5.1	≥ 5000	1.7	19.5	–
Cc1cc(Nc2ncnc3cnc(N4C[C@@H](O)C(F)(F)C4)nc23)ccc1Oc1ccc2c(c1)ncn2C [Example 185, (R)-4,4-difluoro-1-(8-((3-methyl-4-((1-methyl-1H-benzo[d]imidazol-5-yl)oxy)phenyl)amino)pyrimido[5,4-d]pyrimidin-2-yl)pyrrolidin-3-ol]	24.3	12.1	≥ 10000	25.2	≥ 5000	2	31.7	–
Cc1cc(Nc2ncnc3cnc(N4CCC[C@@](C)(O)C4)nc23)ccc1Oc1ccc2c(c1)ncn2C [Example 196, (R)-3-methyl-1-(8-((3-methyl-4-((1-methyl-1H-benzo[d]imidazol-5-yl)oxy)phenyl)amino)pyrimido[5,4-d]pyrimidin-2-yl)piperidin-3-ol]	8.2	9.1	883	8.7	≥ 5000	1.6	13.2	–
Cc1cc(Nc2ncnc3cnc(N(C)[C@@H]4CCC[C@H]4O)nc23)ccc1Oc1ccc2c(c1)ncn2C [Example 193, (1R,2R)-2-(methyl(8-((3-methyl-4-((1-methyl-1H-benzo[d]imidazol-5-yl)oxy)phenyl)amino)pyrimido[5,4-d]pyrimidin-2-yl)amino)cyclopentan-1-ol]	21.2	31	4570	45.6	≥ 5000	1.6	7	–
Cc1cc(Nc2ncnc3cnc(N4CCN5CCOC[C@@H]5C4)nc23)ccc1Oc1ccc2c(c1)ncn2C [Example 190, (S)-6-(hexahydropyrazino[2,1-c][1,4]oxazin-8(1H)-yl)-N-(3-methyl-4-((1-methyl-1H-benzo[d]imidazol-5-yl)oxy)phenyl)pyrimido[5,4-d]pyrimidin-4-amine]	21.5	35	8140	14.1	≥ 5000	1.3	4.7	–
Cc1cc(Nc2ncnc3cnc(N4C[C@H]5CCS(=O)(=O)[C@H]5C4)nc23)ccc1Oc1ccc2c(c1)ncn2C (racemic) [Example 92, rac-(3aR,6aR)-5-(8-((3-methyl-4-((1-methyl-1H-benzo[d]imidazol-5-yl)oxy)phenyl)amino)pyrimido[5,4-d]pyrimidin-2-yl)hexahydro-2H-thieno[2,3-c]pyrrole 1,1-dioxide]	10.7	18.9	8780	23.3	≥ 5000	3.8	–	–
